The data set concerns the target IRF4. The conditions noted are these: ASO.

From the OligoGym collection come the findings set out here.

Values joined by “and” are separate entries in the source; they are usually repeats but may differ in a detail not shown here. Equal entries are not always repeated. After the bases stand the sugars from the 5' end (letter, count) and the backbone: PS all phosphorothioate, else s phosphorothioate and o phosphodiester by linkage. Methylation of C is not given here. e = 2'-O-(2-methoxyethyl) (MOE); k = constrained ethyl (cEt); d = 2'-deoxy (DNA)

“ATGTGTATTACTCTTA (sugars kkddddddddddkeke, PS)”: under “MM.1R, 1 µM”, the target mRNA inhibition was 47% and 48%.

“ATGTGTATTACTCTTA (sugars kkdddddddddkekek, PS)”: the target mRNA inhibition (MM.1R, 1 µM) was 54% and 49%. Take “ATGTTAGCCAATTCCT (sugars k2 d9 e3 k2, PS)”: the target mRNA inhibition (MM.1R, 1 µM) was 17% and 6%. As to “ATGTTAGCCAATTCCT (sugars kdddddddddkekeke, PS)”, for the setting “MM.1R, 1 µM”, the target mRNA inhibition is 0% and 5%.

As to “ATGTTAGCCAATTCCT (sugars kkddddddddddkeke, PS)”, the target mRNA inhibition (MM.1R, 1 µM) is 20% and 15%. On to ATTAATTCTCCTATGC (sugars k3 d10 k3, PS), for which, for the setting “SK-MEL-28, 4 µM”, the target mRNA inhibition was 15%. Regarding ATTCATTTTATGGACC (sugars k3 d10 k3, PS), the target mRNA inhibition (SK-MEL-28, 4 µM) came to 42%. Regarding ATTCCAACAGGCGGAC (sugars k3 d10 k3, PS), under “MM.1R, 1 µM”, the target mRNA inhibition amounted to 2%. The same measure, in the same setting: to ATTTAAGTCATGTGTC (sugars k3 d10 k3, PS) belongs 17%; to ATTTACACCGTTGCTC (sugars k3 d10 k3, PS), 13%. Turning to ATTTACTGTTACCGAT (sugars k3 d10 k3, PS), under “SK-MEL-28, 4 µM”, the target mRNA inhibition came to 29%. With ATTTCACTGTAGGATT (sugars k3 d10 k3, PS), the target mRNA inhibition (SK-MEL-28, 4 µM) was 38%. As for ATTTTATGGACCACGC (sugars k3 d10 k3, PS), the target mRNA inhibition (SK-MEL-28, 4 µM) came out at 49%. Still for that read-out and setting: to ATTTTCACAAGCTGGG (sugars k3 d10 k3, PS) belongs 39%; to CAAAAACTTGGGTCAC (sugars k3 d10 k3, PS), 20%. Consider CAAAAATGTCCCATCC (sugars k3 d10 k3, PS), for which the target mRNA inhibition (SK-MEL-28, 4 µM) turned out to be 19%. Regarding CAAAACTACTATTGTG (sugars k3 d10 k3, PS), the target mRNA inhibition (SK-MEL-28, 4 µM) was found to be 23%. In the case of CAAACCTTAAGCTATT (sugars k3 d10 k3, PS), the target mRNA inhibition is -13% (MM.1R, 0.0625 µM); -5% (MM.1R, 0.25 µM); 6% (MM.1R, 4 µM). On to CAAACTCCTCAGGGAA (sugars k4 d8 k4, PS), for which, under “SK-MEL-28, 4 µM”, the target mRNA inhibition is 17%. As to CAAAGAGGGTCACAGG (sugars k3 d10 k3, PS), the target mRNA inhibition (SK-MEL-28, 4 µM) came out at 63%. The same measure, in the same setting: for CAAATTCAGGAGAGCC (sugars k3 d10 k3, PS) the value was 19%; for CAAATTCCCGGAGGAA (sugars k3 d10 k3, PS), 5%; for CAACAGAGCTGAGAGT (sugars k3 d10 k3, PS), 20%. For the sequence CAACAGTGCCAGAGCA (sugars k3 d10 k3, PS), where the note is “SK-MEL-28, 4 µM”, the target mRNA inhibition amounted to 11%. On to CAACAGTTCAAGTATT (sugars k3 d10 k3, PS), for which, where the note is “SK-MEL-28, 4 µM”, the target mRNA inhibition worked out at 35%.

With CAAGACCCCGTATCCC (sugars k3 d10 k3, PS), the target mRNA inhibition (SK-MEL-28, 4 µM) stood at 44%. Take “CAAGCAGTGATGTCAG (sugars kkdddddddddkdkdk, PS)”: for the setting “MM.1R, 1 µM”, the target mRNA inhibition was 46% and 49%. Turning to “CAAGCAGTGATGTCAG (sugars kkdddddddddkekek, PS)”, the target mRNA inhibition (MM.1R, 1 µM) was 51% and 52%.

With CAAGCATAAAAGGTTC (sugars k3 d10 k3, PS), under “SK-MEL-28, 4 µM”, the target mRNA inhibition was determined as 29%. As to CAAGTAATTTTAAGGC (sugars k3 d10 k3, PS), the target mRNA inhibition (SK-MEL-28, 4 µM) is 41%. With “CAAGTGTCTAAAGTCC (sugars kddddddddddkekek, PS)”, the target mRNA inhibition (MM.1R, 1 µM) is 7% and 12%. In the case of “CAAGTGTCTAAAGTCC (sugars kdddddddddkekeke, PS)”, under “MM.1R, 1 µM”, the target mRNA inhibition was 11% and 10%. CAATAATCTCCCAGCA (sugars k3 d10 k3, PS): under “SK-MEL-28, 4 µM”, the target mRNA inhibition is 37%.

In the case of CAATATGCTTCCAACC (sugars k3 d10 k3, PS), where the note is “SK-MEL-28, 4 µM”, the target mRNA inhibition was -15%. Regarding CAATTAGCTCTTCTAT (sugars k3 d10 k3, PS), where the note is “SK-MEL-28, 4 µM”, the target mRNA inhibition was found to be 14%. With CAATTTACATCTTACT (sugars k3 d10 k3, PS), for the setting “SK-MEL-28, 4 µM”, the target mRNA inhibition came to 21%. Turning to CACAACTGCAGTTTGA (sugars k3 d10 k3, PS), the target mRNA inhibition (SK-MEL-28, 4 µM) came to 14%. In the case of CACAAGCAGTGATGTC (sugars k3 d10 k3, PS), the target mRNA inhibition (SK-MEL-28, 4 µM) was found to be 60%. For CACATAACTCAGGCAA (sugars k3 d10 k3, PS), the target mRNA inhibition (SK-MEL-28, 4 µM) was 37%. CACATCAATGTTTTAG (sugars k3 d10 k3, PS): the target mRNA inhibition reads like this: (H929, 0.04 µM) 14%; (KMS11, 0.2 µM) 61% and 78%; (MM.1R, 0.0625 µM) 48%; (MM.1R, 0.25 µM) 62%; (MM.1R, 1 µM) 66% and 75% and 72%; (MM.1R, 4 µM) 89%. Take CACATTAAAGGGTAAG (sugars k3 d10 k3, PS): the target mRNA inhibition (SK-MEL-28, 4 µM) was -1%. With CACCAGGAAACCGCTG (sugars k3 d10 k3, PS), the target mRNA inhibition (SK-MEL-28, 4 µM) stood at 15%. For the sequence CACCCACACAAGTCTT (sugars k4 d8 k4, PS), the target mRNA inhibition (SK-MEL-28, 4 µM) came out at 14%. With CACGAAACACAGTCTG (sugars k3 d10 k3, PS), the target mRNA inhibition (SK-MEL-28, 4 µM) is 52%.

Consider CACGAAGATTCAAAAG (sugars k3 d10 k3, PS), for which the target mRNA inhibition (SK-MEL-28, 4 µM) came out at 10%. Turning to CACGAGGCACCGCACT (sugars k3 d10 k3, PS), where the note is “SK-MEL-28, 4 µM”, the target mRNA inhibition was -13%.

Turning to CACTATGGTAGGAGTG (sugars k3 d10 k3, PS), the target mRNA inhibition (SK-MEL-28, 4 µM) is -12%.
